# Tested on: healthy subjects
# Experiment: CANTAB global composite score
# Type: in vivo, human
# Conditions: 10 mg vs placebo, Day 7
# Procedure: The following list of outcome measures are non-exhaustive. • a. The short-term change from Baseline (Day −1 [Visit 2]) to Day 7 (Visit 5) in cognitive measures of attention, spatial and working memory and executive function was measured by a composite score of the CANTAB Panel (Spatial Working Memory [SWM], Rapid Visual Information Processing [RVP], Paired Associates Learning [PAL]). • b. The short-term change from Baseline (Day −1 [Visit 2]) to Day 7 (Visit 5) in Social Cognition Panel scales (Pictorial Empathy Test [PET], Reading the Mind in the Eyes Test [RMET], Toronto Empathy Questionnaire [TEQ], Social Value Orientation [SVO], Scale of Social Responsibility [SSR]). • c. The change from Baseline (Day −1 [Visit 2]) to Day 28 (Visit 6) in cognitive measures of attention, spatial and working memory and executive function as measured by a composite score of the CANTAB Panel (SWM, RVP, PAL). • d. […] Dose-related differences between cognitive effects of psilocybin at Baseline (Day −1 [Visit 2]), Day 7 (Visit 5) and Day 28 (Visit 6), as measured by a composite score of the CANTAB Panel (SWM, RVP, PAL). • f. Dose-related differences between psychological effects of psilocybin at Baseline (Day −1 [Visit 2]), Day 7 (Visit 5) and Day 84 (Visit 7), as measured by Social Cognition Panel scales (PET, RMET, TEQ, SVO, SSR). • g. […]
structure (smiles),measurement,value
CN(C)CCc1c[nH]c2cccc(OP(=O)(O)O)c12 [psilocybin],"CANTAB global composite score, effect size",0.53
